# Tested on: KRAS G12V dependent lung adenocarcinoma cell line, NCI-H441
# Assay: Cellular pERK (Thr202/Tyr204) FRET/HTRF assay
# Type: cell-based
# Settings: Homo sapiens, NCI-H441, cellular pERK (Thr202/Tyr204) HTRF, NCI-H441 cells
# Outline: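 IC50 reflects inhibition of ERK1/2 Thr202/Tyr204 phosphorylation, quantified by HTRF after a 1 hr treatment of KRAS G12V-driven NCI-H441 cells. DMSO served as negative control.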
row,Structure (SMILES),IC50 [nM]
1,"[2H]C([2H])(Oc1nc(N2CCOC[C@H]3[C@H](F)[C@H]32)c2cnc(-c3cc(N)cc4ccc(C)c(C#C)c34)c(F)c2n1)[C@@]12CCCN1[C@H](C)[C@H](F)C2 [Example 410, 5-ethynyl-4-(8-fluoro-2-(((2R,3R,7aS)-2-fluoro-3-methyltetrahydro-1H-pyrrolizin-7a(5H)-yl)methoxy-d2)-4-((1S,7S,8S)-8-fluoro-5-oxa-2-azabicyclo[5.1.0]octan-2-yl)pyrido[4,3-d]pyrimidin-7-yl)-6-methylnaphthalen-2-amine]",< 50
2,"[2H]C([2H])(Oc1nc(N2CCOC[C@H]3[C@H](F)[C@H]32)c2c(OC)nc(-c3cccc4ccc(F)c(C#C)c34)c(F)c2n1)[C@@]12CCCN1C[C@H](F)C2 [Example 235, (1S,7S,8S)-2-(7-(8-ethynyl-7-fluoronaphthalen-1-yl)-8-fluoro-2-(((2R,7aS)-2-fluorotetrahydro-1H-pyrrolizin-7a(5H)-yl)methoxy-d2)-5-methoxypyrido[4,3-d]pyrimidin-4-yl)-8-fluoro-5-oxa-2-azabicyclo[5.1.0]octane]",500 to 10000
3,"C#Cc1c(F)ccc2cc(N)cc(-c3ncc4c(N5CCOC[C@H]6[C@H](F)[C@H]65)nc(OC[C@]56CC(=C)CN5CCC65CC5)nc4c3C)c12 [Example 429, 5-ethynyl-6-fluoro-4-(4-((1S,7S,8S)-8-fluoro-5-oxa-2-azabicyclo[5.1.0]octan-2-yl)-8-methyl-2-(((R)-6′-methylenetetrahydrospiro[cyclopropane-1,1′-pyrrolizin]-7a′(5′H)-yl)methoxy)pyrido[4,3-d]pyrimidin-7-yl)naphthalen-2-amine]",< 50
4,"C#Cc1c(F)ccc2cccc(-c3ncc4c(N5CCOC[C@@H]6[C@@H](F)[C@@H]65)nc(OC[C@@]56CCCN5CC(=C(F)F)C6)nc4c3F)c12 [Example 103, (1R,7R,8R)-2-(2-(((S)-2-(difluoromethylene)tetrahydro-1H-pyrrolizin-7a(5H)-yl)methoxy)-7-(8-ethynyl-7-fluoronaphthalen-1-yl)-8-fluoropyrido[4,3-d]pyrimidin-4-yl)-8-fluoro-5-oxa-2-azabicyclo[5.1.0]octane]",500 to 10000
5,"[2H]C1([2H])OCCN(c2nc(OC([2H])([2H])[C@@]34CCCN3C[C@H](F)C4)nc3c(F)c(-c4cccc5ccc(F)c(C#C)c45)ncc23)[C@@H]2[C@@H](F)[C@@H]21 [Example 101, (1S,7S,8S)-2-(7-(8-ethynyl-7-fluoronaphthalen-1-yl)-8-fluoro-2-(((2R,7aS)-2-fluorotetrahydro-1H-pyrrolizin-7a(5H)-yl)methoxy-d2)pyrido[4,3-d]pyrimidin-4-yl)-8-fluoro-5-oxa-2-azabicyclo[5.1.0]octane-6,6-d2]",< 50
6,"[2H]C([2H])(Oc1nc(N2CCOC[C@H]3[C@H](F)[C@H]32)c2cnc(-c3cc(N)cc4ccc(F)c(C#C)c34)c(C)c2n1)[C@@]12CCCN1C[C@H](F)C2 [Example 329, 5-Ethynyl-6-fluoro-4-(4-((1S,7S,8S)-8-fluoro-5-oxa-2-azabicyclo[5.1.0]octan-2-yl)-2-(((2R,7aS)-2-fluorotetrahydro-1H-pyrrolizin-7a(5H)-yl)methoxy-d2)-8-methylpyrido[4,3-d]pyrimidin-7-yl)naphthalen-2-amine]",< 50
7,"C#Cc1c(F)ccc2cc(N)cc(-c3ncc4c(N5CCOC[C@H]6[C@H](F)[C@H]65)nc(OC[C@@]56CCCN5C/C(=C/F)C6)nc4c3C)c12 [Example 426, 5-ethynyl-6-fluoro-4-(4-((1S,7S,8S)-8-fluoro-5-oxa-2-azabicyclo[5.1.0]octan-2-yl)-2-(((S,E)-2-(fluoromethylene)tetrahydro-1H-pyrrolizin-7a(5H)-yl)methoxy)-8-methylpyrido[4,3-d]pyrimidin-7-yl)naphthalen-2-amine]",< 50

# Same assay, conditions: Homo sapiens, NCI-H441, pERK HTRF, NCI-H441 cells (KRAS G12V)
row,Structure (SMILES),IC50 [nM]
1,"[2H]C([2H])(Oc1nc(N2CCCO[C@H]3[C@H](F)[C@H]32)c2cnc(-c3cccc4ccc(F)c(C#C)c34)c(F)c2n1)[C@@]12CCCN1C[C@H](F)C2 [Example 75, (1R,7S,8R)-6-(7-(8-Ethynyl-7-fluoronaphthalen-1-yl)-8-fluoro-2-(((2R,7aS)-2-fluorotetrahydro-1H-pyrrolizin-7a(5H)-yl)methoxy-d2)pyrido[4,3-d]pyrimidin-4-yl)-8-fluoro-2-oxa-6-azabicyclo[5.1.0]octane]",< 50
2,"[2H]C([2H])(Oc1nc(N2CCOC[C@@H]3C[C@@H]32)c2cnc(-c3ccc(F)c4sc(N)c(C#N)c34)c(F)c2n1)[C@@]12CCCN1C[C@H](F)C2 [Example 47, 4-(4-((1S,7R)-5-Oxa-2-azabicyclo[5.1.0]octan-2-yl)-8-fluoro-2-(((2R,7aS)-2-fluorotetrahydro-1H-pyrrolizin-7a(5H)-yl)methoxy-d2)pyrido[4,3-d]pyrimidin-7-yl)-2-amino-7-fluorobenzo[b]thiophene-3-carbonitrile]",500 to 10000
3,"[2H]C([2H])(Oc1nc(N2CCCO[C@H]3C[C@H]32)c2c(OC)nc(-c3cc(N)cc4cc(F)c(F)c(C#C)c34)c(F)c2n1)[C@@]12CCCN1C[C@H](F)C2 [Example 34, 4-(4-((1S,7R)-2-Oxa-6-azabicyclo[5.1.0]octan-6-yl)-8-fluoro-2-(((2R,7aS)-2-fluorotetrahydro-1H-pyrrolizin-7a(5H)-yl)methoxy-d2)-5-methoxypyrido[4,3-d]pyrimidin-7-yl)-5-ethynyl-6,7-difluoronaphthalen-2-amine]",< 50

# Same assay, conditions: cellular pERK (Thr202/Tyr204) HTRF, NCI-H441 cells
row,Structure (SMILES),IC50 [nM]
1,"[2H]C([2H])(Oc1nc(N2CCOC[C@H]3[C@H](F)[C@H]32)c2cc(C#N)c(-c3cc(N)cc4ccc(F)c(C#C)c34)c(F)c2n1)[C@@]12CCCN1C[C@H](F)C2 [Example 353, 7-(3-Amino-8-ethynyl-7-fluoronaphthalen-1-yl)-8-fluoro-4-((1S,7S,8S)-8-fluoro-5-oxa-2-azabicyclo[5.1.0]octan-2-yl)-2-(((2R,7aS)-2-fluorotetrahydro-1H-pyrrolizin-7a(5H)-yl)methoxy-d2)quinazoline-6-carbonitrile]",< 50

# Same assay, conditions: cellular pERK HTRF, NCI-H441 (KRAS G12V) cells
row,Structure (SMILES),IC50 [nM]
1,"[2H]C([2H])(Oc1nc(N2CCOC[C@H]3[C@H](F)[C@H]32)c2cc(F)c(-c3cc(O)cc4ccc(F)c(C#C)c34)c(C)c2n1)[C@@]12CCCN1C[C@H](F)C2 [Example 469, 5-ethynyl-6-fluoro-4-((S)-6-fluoro-4-((1S,7S,8S)-8-fluoro-5-oxa-2-azabicyclo[5.1.0]octan-2-yl)-2-(((2R,7aS)-2-fluorotetrahydro-1H-pyrrolizin-7a(5H)-yl)methoxy-d2)-8-methylquinazolin-7-yl)naphthalen-2-ol]",< 50
2,"[2H]C([2H])(Oc1nc(N2CCOC[C@H]3[C@H](F)[C@H]32)c2cc(F)c(-c3cc(O)cc4ccc(F)c(C#C)c34)c(C)c2n1)[C@@]12CCCN1C[C@H](F)C2 (atropisomer, axis not shown; (aS)) [Example 467, 5-Ethynyl-6-fluoro-4-((R)-6-fluoro-4-((1S,7S,8S)-8-fluoro-5-oxa-2-azabicyclo[5.1.0]octan-2-yl)-2-(((2R,7aS)-2-fluorotetrahydro-1H-pyrrolizin-7a(5H)-yl)methoxy-d2)-8-methylquinazolin-7-yl)naphthalen-2-ol]",500 to 10000

# Source: US20250282799A1, “SUBSTITUTED PYRIDO[4,3-d]PYRIMIDINES AS KRAS MODULATORS” (Alterome Therapeutics, Inc., priority 2023, published 2025)
